Data published in US20090325891A1, “Cartilage regeneration-promoting agent” (EISAI FOOD & CHEMICAL CO., LTD., priority 2006, published 2009).
Values joined by “and” are separate entries in the source; they are usually repeats but may differ in a detail not shown here. Equal entries are not always repeated. “Also recorded” adds a separate entry of the source.

How the values were obtained:
[1] = system: articular cartilage injury of the knee in rabbits; experiment: Macroscopic degree of healing in rabbit articular cartilage injury model; assay type: in vivo; details: for Degree of healing Distal trochlear sulcus / Degree of healing Proximal trochlear sulcus / Degree of healing Medial trochlear ridge: individual rabbits, 3 weeks after operation; for average value of quantified data (degree of healing, points): − = 0 to +++ = 3 points
Protocol: The cartilage regeneration-promoting effect of hydroxytyrosol obtained in Production Example 1 was investigated using a rabbit articular cartilage injury model prepared experimentally.
Six female and six male rabbits (New Zealand white, 16 weeks old when introduced, body weight: from 2.00 kg to 2.55 kg) were habituated for one week under the conditions of one rabbit per cage, temperature: from 23° C. to 25° C., relative humidity: from 50% to 60%, a light/dark cycle of 12 h, 12 times air changes per hour). During this period, animals were fed with feed, which is sold commercially, and sterile tap water ad libitum.
After the period, rabbits were divided at random into two groups so that each group contains three female and three male rabbits. One group was designated as a control group and the other as a hydroxytyrosol administration group (hereinafter, HT group).
(§1) The rabbit articular cartilage injury model was prepared based on the method of Hashida et. al. (See, Macromolecular Bioscience, 3, (2003) 596-603), and Tamai et. al. (See, Carbohydrate Polymers, 48, (2002) 369-378, and Carbohydrate Polymers, 54, (2003) 251-262).
(§2) Initially, each animal was anesthetized by injecting pentobarbital sodium (40 mg/kg) intraperitoneally. Next, hairs at the knee joint of the left hind limb of the animal were clipped and disinfected with 0.5% chlorhexidine gluconate solution and 70% ethanol solution. Then, an incision was made on the skin on the lateral portion of the knee joint from the central part of the femur toward the tibial tuberosity. The articular capsule was exposed and incised. Further, the knee joint was exposed completely by dislocating the patella toward the medial side. Three holes of 2 mm size in diameter and 4 mm in depth were made by using a handdrill one at the medial trochlear ridge and two at the trochlear sulcus of the femur. The incised portion was washed with sterile saline solution and the articular capsule, and at the same time, the subcutaneous tissues and the skin were sutured with a synthetic absorbent thread and with nylon thread, respectively. During one week after the operation, the sutured portion of the skin was disinfected by povidone-iodine once a day and 10 mg/kg of oxytetracycline hydrochloride was subcutaneously administered twice a day.
(§3) After the formation of injury to articular cartilage, for the HT group, the product containing 20% by mass of hydroxytyrosol obtained in Production Example 1 was dissolved in tap water and administered using a water bottle at a rate of 500 mg/kg (100 mg/kg of hydroxytyrosol) per day for 21 days. After making sure that all of the water containing the drug was taken in, rabbits were fed with sterile tap water. The control was fed with sterile tap water ad libitum.
After the experimental period, all animals were euthanized by overdose using an intravenous injection of pentobarbital sodium (80 mg/kg). Then, knee joints were incised, and the conditions of joint cartilages were macroscopically observed. The degree, to which the injury of cartilage was healed, was evaluated based on the following standards.
• −: Degree of healing is less than 50% • +: Degree of healing is from 50% to 60% • ++: Degree of healing is from 60% to 80% • +++: Degree of healing is from 80% to 100%
Further, the above evaluation was assigned numbers: (−) was assigned with 0 point (+) was assigned with 1 point, (++) was assigned with 2 points, and (+++) was assigned with 3 points. The degree of healing of articular cartilage was expressed numerically, and Mann-Whitney's U test was performed between the control group and the HT group.
(§4) In the same way as in Example 1, the cartilage regeneration-promoting effects were investigated with respect to hydroxytyrosol (100 mg/kg per day, HT group) and with respect to glucosamine hydrochloride (800 mg/kg per day, hereinafter, GAH group) for comparison. The control group was set in the same way as in Example 1.

[2] = system: lateral vastus muscles and femoral biceps muscles; experiment: Muscle weight ratio (injured side vs opposite side) in rabbit articular cartilage injury model; assay type: in vivo; details: for Muscle weight ratio Lateral vastus muscle, Mean / Muscle weight ratio Femoral biceps muscle, Mean: group mean, 6 rabbits; for Muscle weight ratio Femoral biceps muscle / Muscle weight ratio Lateral vastus muscle: individual rabbits, injured side vs opposite side
Protocol: as §1, §2, §3
For each animal, left and right lateral vastus muscles and femoral biceps muscles were collected, and weights were measured. The muscle weight ratio was calculated by comparing the side, in which cartilage injury was made, with the opposite side, and Student's t-test was performed between the control group and the HT group.
as §4

[3] = system: articular cartilage injury of the knee in rabbits; experiment: Histopathological examination (hematoxylin/eosin) of injured knee articular cartilage; assay type: in vivo, rabbit; details: hematoxylin/eosin staining
Protocol: as §1, §2, §3
For each animal, femur was collected and fixed by a 10% neutral buffered forrnalin solution. […]

proteoglycan = experiment: Image analysis of Safranin O staining (proteoglycan) of knee articular cartilage; assay type: in vivo, rabbit
Protocol: as §1, §2, §3
The specimens stained with Safranin O and with Alcian blue were prepared in the same way as mentioned above and subjected to image analysis. The 200 times magnified images of specimens were scanned into the computer using a digital camera (Olympus DP70, manufactured by Olympus Corporation). Then, two locations (20,000 pixels) were randomly sampled, and the density of the site stained in a specific color (site stained with Safranin O:
corresponding to proteoglycan, site stained with Alcian blue: corresponding to glycosaminoglycan) was measured. For the obtained values, Student's t-test was performed between the control group and the HT group.
as §4

[4] = Example 1, 100 mg/kg of hydroxytyrosol per day for 21 days, 100 mg/kg
[5] = Example 2, HT 100 mg/kg per day, GAH 800 mg/kg per day, female rabbits
[6] = Example 2, HT 100 mg/kg per day, GAH 800 mg/kg per day, male rabbits

`OCCc1ccc(O)c(O)c1` [HT group, 2-(3,4-Dihydroxyphenyl)ethanol] was tested. Which “cartilage healing / regeneration compared with the control group” value ([1]; Example 1, Mann-Whitney's U test, p<0.05) did it give?
The value was “promoted significantly”.

And the “cartilage healing / regeneration compared with the control group” value ([1]; Example 1, Mann-Whitney's U test, p<0.05, listed as hydroxytyrosol)?
The value was “promoted the regeneration of cartilage”.

And the “Degree of healing Distal trochlear sulcus” value [1, 4]?
The value was “+++ (Degree of healing is from 80% to 100%); also recorded: + (Degree of healing is from 50% to 60%); also recorded: ++ (Degree of healing is from 60% to 80%)”.

And the “Degree of healing Proximal trochlear sulcus” value [1, 4]?
The value was “++ (Degree of healing is from 60% to 80%); also recorded: +++ (Degree of healing is from 80% to 100%); also recorded: + (Degree of healing is from 50% to 60%)”.

What about the “Degree of healing Medial trochlear ridge” value ([1]; Example 1, 100 mg/kg of hydroxytyrosol per day in drinking water for 21 days, 100 mg/kg) of the same compound?
The value was “+++ (Degree of healing is from 80% to 100%); also recorded: ++ (Degree of healing is from 60% to 80%); also recorded: + (Degree of healing is from 50% to 60%)”.

What about the “average value of quantified data (degree of healing, points)” value ([1]; Example 1, control group 4.83) of the same compound?
Its value is 7.17.

What about the “cartilage healing / regeneration compared with the control group” value ([1]; Example 2, HT p<0.01, GAH p<0.05) of the same compound?
The value was “promoted significantly”.

And the “cartilage healing / regeneration compared with the control group” value ([1]; Example 2, HT p<0.01, GAH p<0.05, listed as hydroxytyrosol)?
The value was “promoted the regeneration of cartilage”.

And the “Degree of healing Distal trochlear sulcus” value [1, 5]?
The value was “+++ (Degree of healing is from 80% to 100%)”.

And the “Degree of healing Medial trochlear ridge” value [1, 5]?
The value was “+++ (Degree of healing is from 80% to 100%)”.

And the “Degree of healing Proximal trochlear sulcus” value [1, 5]?
The value was “+++ (Degree of healing is from 80% to 100%); also recorded: ++ (Degree of healing is from 60% to 80%)”.

And the “Degree of healing Distal trochlear sulcus” value [1, 6]?
Its value is “+++ (Degree of healing is from 80% to 100%)”.

What about the “Degree of healing Medial trochlear ridge” value [1, 6] of the same compound?
The value was “++ (Degree of healing is from 60% to 80%); also recorded: +++ (Degree of healing is from 80% to 100%)”.

What about the “Degree of healing Proximal trochlear sulcus” value [1, 6] of the same compound?
The value was “++ (Degree of healing is from 60% to 80%); also recorded: +++ (Degree of healing is from 80% to 100%)”.

What about the “average value of quantified data (degree of healing, points)” value ([1]; Example 2, control group 5.33) of the same compound?
Its value is 8.17.

And the “muscle weight of the femoral biceps muscle (in words)” value ([2]; Example 1)?
The value was “little decrease”.

What about the “muscle weight of the lateral vastus muscle (in words)” value ([2]; Example 1) of the same compound?
Its value is “decreased slightly”.

What about the “Muscle weight ratio Lateral vastus muscle, Mean” value ([2]; Example 1, control 88.84) of the same compound?
Its value is 95.93%.

And the “Muscle weight ratio Femoral biceps muscle, Mean” value ([2]; Example 1, control 88.99)?
The value was 100.08%.

What about the “Muscle weight ratio Femoral biceps muscle” value ([2]; Example 1, female rabbits) of the same compound?
Its value is 100.18% and 98.45% and 93.46%.

And the “Muscle weight ratio Lateral vastus muscle” value ([2]; Example 1, female rabbits)?
Its value is 105.30% and 96.92% and 80.89%.

And the “Muscle weight ratio Femoral biceps muscle” value ([2]; Example 1, male rabbits)?
Its value is 94.80% and 106.36% and 107.22%.

What about the “Muscle weight ratio Lateral vastus muscle” value ([2]; Example 1, male rabbits) of the same compound?
Its value is 93.29% and 95.10% and 104.10%.

And the “muscle weight of the femoral biceps muscle (in words)” value ([2]; Example 2)?
Its value is “little decrease”.

What about the “muscle weight of the lateral vastus muscle (in words)” value ([2]; Example 2) of the same compound?
The value was “little decrease”.

What about the “Muscle weight ratio Femoral biceps muscle, Mean” value ([2]; Example 2, control 83.80) of the same compound?
Its value is 100.59%.

What about the “Muscle weight ratio Lateral vastus muscle, Mean” value ([2]; Example 2, control 91.91) of the same compound?
Its value is 98.48%.

And the “Muscle weight ratio Femoral biceps muscle” value ([2]; Example 2, female rabbits)?
The value was 90.91% and 111.86% and 93.42%.

And the “Muscle weight ratio Lateral vastus muscle” value ([2]; Example 2, female rabbits)?
The value was 94.98% and 98.56% and 92.43%.

And the “Muscle weight ratio Femoral biceps muscle” value ([2]; Example 2, male rabbits)?
The value was 101.37% and 104.66% and 101.31%.

And the “Muscle weight ratio Lateral vastus muscle” value ([2]; Example 2, male rabbits)?
The value was 84.93% and 111.10% and 108.90%.

And the “histopathological findings at the site at which injury was created” value ([3]; Example 1)?
The value was “matured chondrocytes were found extensively”.

What about the “histopathological findings at the site at which injury was created” value ([3]; Example 2) of the same compound?
The value was “matured chondrocytes were found extensively”.

And the “density at the site stained with Safranin O, normal site and growth zone of cartilage, vs control” value (proteoglycan; Example 1)?
Its value is “no difference”.

And the “density at the site stained with Safranin O (proteoglycan), injured site of cartilage, vs control” value (proteoglycan; Example 1, site of cartilage at which injury was created)?
Its value is “significant increase”.

What about the “density at the site stained with Safranin O (proteoglycan), injured site of cartilage, vs control” value (proteoglycan; Example 2, injured site of cartilage) of the same compound?
Its value is “significant increase”.

What about the “density at the site stained with Safranin O, normal site and growth zone of cartilage, vs control” value (proteoglycan; Example 2) of the same compound?
Its value is “no difference”.
